Data reported in publication PMC3172300, “Modulation of Catalytic Activity in Multi-Domain Protein Tyrosine Phosphatases” (PLoS ONE, 2011).
Read-outs that look alike come from different tables or passages of the source. Square brackets hold non-standard residues; d marks the D form. Peptide text beside a SMILES is read from it. pY = N[C@@H](Cc1ccc(OP(=O)(O)O)cc1)C(=O)O

Tests used:
DLAR D1D2 = target: T1, DLAR D1D2 (Drosophila melanogaster, UniProt P16621); assay: Surface Plasmon Resonance peptide binding, DLAR D1D2; details: two-site model, read-out: ka
T1 construct: DLAR 1448-2029; His tag (pET-15b or pET-22b); made in house; host or cells: E. coli BL21(DE3)
T1 sequence (P16621 1448-2029): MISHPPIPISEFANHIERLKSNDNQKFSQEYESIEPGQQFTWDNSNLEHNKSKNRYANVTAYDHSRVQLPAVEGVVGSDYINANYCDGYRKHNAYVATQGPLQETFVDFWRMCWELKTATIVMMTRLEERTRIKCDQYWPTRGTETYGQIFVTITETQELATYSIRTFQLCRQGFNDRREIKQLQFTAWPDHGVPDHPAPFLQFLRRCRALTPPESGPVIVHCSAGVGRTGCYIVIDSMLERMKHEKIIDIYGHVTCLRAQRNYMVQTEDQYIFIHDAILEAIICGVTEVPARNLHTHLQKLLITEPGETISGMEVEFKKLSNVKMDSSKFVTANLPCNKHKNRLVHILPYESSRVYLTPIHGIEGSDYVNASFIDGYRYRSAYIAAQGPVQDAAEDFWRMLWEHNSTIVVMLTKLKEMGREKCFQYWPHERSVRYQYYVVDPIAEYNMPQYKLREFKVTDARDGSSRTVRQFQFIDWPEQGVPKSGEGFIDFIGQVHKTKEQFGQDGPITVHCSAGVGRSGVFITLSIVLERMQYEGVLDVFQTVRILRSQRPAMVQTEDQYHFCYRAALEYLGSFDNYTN
Description: (§1) The binding of phosphotyrosine peptides to the PTP domains was studied by Surface Plasmon Resonance on a Biacore-2000 instrument (BIAcore, AB). All experiments were conducted at 25°C. DLAR PTP domains were immobilized onto carboxylated dextran CM5 chips (BIAcore AB) using the standard amine coupling procedure as recommended by the manufacturer. Binding and kinetic assays were performed in 10 mM HEPES, pH 8.0, 150 mM NaCl, 10 mM DTT and 3 mM EDTA at a flow rate of 5 µL/min. The peptides were used at concentrations ranging from 50–700 µM. Dissociation was initiated by replacing the analyte with buffer. The association and dissociation curves were monitored for 600 sec. Sensograms were analyzed with BIA-evaluation software version 2 (BIAcore AB). Sensograms for DLAR D1D2, DLAR D1HSSD2 and DLAR D1D2HSS were fitted to two-site binding equations. DLAR D1 and DLAR D2 sensograms were fitted using a single-site binding model.

DLAR D1 D2HSS = target: T2, DLAR D1 D2HSS (Drosophila melanogaster, UniProt P16621, C1961S); assay: Surface Plasmon Resonance peptide binding, DLAR D1 D2HSS; details: two-site model, read-out: ka
T2 construct: DLAR 1448-2029; His tag (pET-15b or pET-22b); made in house; host or cells: E. coli BL21(DE3)
Description: as §1

DLAR D2 = target: T3, DLAR D2 (Drosophila melanogaster, UniProt P16621); assay: Phosphatase assay using pNPP, DLAR D2; format: biochemical; details: CGH buffer pH 6.5
T3 construct: DLAR 1728-2029; His tag (pET-15b or pET-22b); made in house; host or cells: E. coli BL21(DE3)
T3 sequence (P16621 1728-2029): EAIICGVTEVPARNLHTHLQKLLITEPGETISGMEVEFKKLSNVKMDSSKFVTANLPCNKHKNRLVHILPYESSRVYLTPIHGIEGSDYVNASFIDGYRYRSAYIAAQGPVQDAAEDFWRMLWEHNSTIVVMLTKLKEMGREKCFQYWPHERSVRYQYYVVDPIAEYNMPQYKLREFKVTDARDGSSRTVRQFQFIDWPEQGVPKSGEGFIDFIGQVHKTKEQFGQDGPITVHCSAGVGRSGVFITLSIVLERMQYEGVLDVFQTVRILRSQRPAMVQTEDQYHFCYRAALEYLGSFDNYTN
Description: (§2) Phosphatase activity of the recombinant PTP domains was determined by using para-Nitrophenylphosphate (pNPP), a small molecule generic substrate, as well as phosphotyrosine containing peptides. The pNPP assay was performed as reported previously, with a modification in the buffer composition (25 mM Citrate, Glycine and HEPES (CGH), pH 6.5, 100 mM NaCl and 2 mM DTT). Phosphatase activity with the phosphotyrosine peptides was ascertained by the malachite green reaction as described for PTPs previously. Briefly, the reaction mixture comprised of 0.01 µM protein incubated with increasing concentrations of different peptides in 25 mM citrate buffer pH 6.0, 100 mM NaCl and 2 mM DTT for 15 min at 25°C. The reaction was stopped by the addition of the Biomol Green reagent (Enzo Life Sciences) and the colour developed after 20 min was quantified at 650 nm. For all the assays, kinetic constants for the steady state catalysis were obtained by fitting the reaction curves to the Michaelis-Menten equation using the nonlinear regression module of Sigma plot software (Systat Software, Inc.).

PTP99A D2 = target: T4, PTP99A D2 (Drosophila melanogaster, UniProt P35832); assay: Phosphatase assay using pNPP, PTP99A D2; format: biochemical; details: CGH buffer pH 6.5
T4 sequence (P35832 740-1050): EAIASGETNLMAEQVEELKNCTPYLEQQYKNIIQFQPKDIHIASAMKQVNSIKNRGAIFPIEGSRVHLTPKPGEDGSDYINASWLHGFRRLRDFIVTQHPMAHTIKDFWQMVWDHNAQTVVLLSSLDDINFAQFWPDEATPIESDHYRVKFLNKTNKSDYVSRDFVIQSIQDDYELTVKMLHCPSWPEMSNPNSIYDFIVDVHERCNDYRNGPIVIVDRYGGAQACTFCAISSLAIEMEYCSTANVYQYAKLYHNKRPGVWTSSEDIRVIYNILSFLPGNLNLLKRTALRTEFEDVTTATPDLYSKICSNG
Description: as §2

[1] = test system: DLAR D1 active site cysteine to serine mutant; assay: Phosphatase assay using pNPP, DLAR D1 active site Cys to Ser mutant; format: biochemical, Drosophila melanogaster; details: active site cysteine to serine in D1
From the text: Cosmids containing the genes encoding RPTPs DLAR and PTP99A were a kind gift from Prof. Kai Zinn (Caltech). The PTP domains of PTP99A and DLAR were PCR amplified and ligated between the NheI and XhoI restriction sites of the bacterial expression vectors pET-15b and pET-22b. The active site mutants (with the nucleophilic cysteines in the PTP domains of DLAR and PTP99A mutated to serines) were obtained by using a single primer approach. An XbaI site was incorporated in the primers to aid screening of mutants. All clones were confirmed by sequencing (Macrogen Inc.). The details of the expression constructs are compiled in Table S1 and Figure 1a.
Phosphatase activity of the recombinant PTP domains was determined by using para-Nitrophenylphosphate (pNPP), a small molecule generic substrate, as well as phosphotyrosine containing peptides. The pNPP assay was performed as reported previously, with a modification in the buffer composition (25 mM Citrate, Glycine and HEPES (CGH), pH 6.5, 100 mM NaCl and 2 mM DTT). Phosphatase activity with the phosphotyrosine peptides was ascertained by the malachite green reaction as described for PTPs previously. […] The reaction was stopped by the addition of the Biomol Green reagent (Enzo Life Sciences) and the colour developed after 20 min was quantified at 650 nm. […]

[2] = pH 8, SPR Biacore-2000, 25°C, 10 mM HEPES pH 8.0, 150 mM NaCl, 10 mM DTT, 3 mM EDTA, peptides 50–700 µM, first binding site
[3] = pH 8, SPR, 25°C, pH 8.0, second binding site

T2 sequence (P16621 1448-2029 C1961S): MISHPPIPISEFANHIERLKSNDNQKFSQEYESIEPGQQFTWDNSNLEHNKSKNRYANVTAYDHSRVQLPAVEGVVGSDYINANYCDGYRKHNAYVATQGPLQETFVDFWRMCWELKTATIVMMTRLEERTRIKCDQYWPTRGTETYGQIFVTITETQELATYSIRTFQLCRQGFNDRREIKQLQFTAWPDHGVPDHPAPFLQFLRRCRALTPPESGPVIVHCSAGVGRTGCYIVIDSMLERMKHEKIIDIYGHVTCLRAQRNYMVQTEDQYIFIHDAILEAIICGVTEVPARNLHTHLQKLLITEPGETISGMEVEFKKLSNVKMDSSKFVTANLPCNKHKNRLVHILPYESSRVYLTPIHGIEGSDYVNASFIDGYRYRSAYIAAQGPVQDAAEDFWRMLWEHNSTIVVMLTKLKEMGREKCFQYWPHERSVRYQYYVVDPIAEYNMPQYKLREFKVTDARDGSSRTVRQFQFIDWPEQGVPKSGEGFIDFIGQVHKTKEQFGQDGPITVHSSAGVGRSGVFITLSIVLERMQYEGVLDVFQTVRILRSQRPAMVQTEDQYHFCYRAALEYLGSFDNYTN

| Structure (SMILES) | kon (DLAR D1D2; [2]) [M⁻¹ s⁻¹] | kon (DLAR D1D2; [3]) [M⁻¹ s⁻¹] | kon (DLAR D1 D2HSS; [2]) [M⁻¹ s⁻¹] | kon (DLAR D1 D2HSS; [3]) [M⁻¹ s⁻¹] | PTPase activity (DLAR D2) | PTPase activity (PTP99A D2) | PTPase activity [1] |
| --- | --- | --- | --- | --- | --- | --- | --- |
| CC(C)C[C@H](NC(=O)[C@H](C)NC(=O)CNC(=O)[C@H](Cc1ccc(OP(=O)(O)O)cc1)NC(=O)[C@H](CC(=O)O)NC(=O)[C@@H]1CCCN1C(=O)[C@H](CCC(=O)O)NC(=O)[C@H](C)NC(=O)[C@@H](N)[C@@H](C)O)C(=O)N[C@@H](Cc1ccc(O)cc1)C(=O)N[C@@H](CCC(=O)O)C(=O)O [Cuticle peptide] (H-TAEPD[pY]GALYE-OH) | 32.6 ± 1.57 | 16500 ± 2.3e+07 | 51.7 ± 0.61 | 1.37 ± 0.4 |  |  |  |
| O=[N+]([O-])c1ccc(OP(=O)(O)O)cc1 [pNPP, para-Nitrophenylphosphate] |  |  |  |  | no detectable activity | no detectable activity | inactive enzyme |
